# Measurements from ChEMBL document CHEMBL1201862, “PubChem BioAssay data set” (2004).
# Activity calls are given as the source filed them.
# Tests used:
# [1] = target: T1, Replicative DNA helicase DnaB (Mycobacterium tuberculosis, UniProt P9WMR3); assay: DnaB intein splicing inhibitors, dose response, biochemical, cell-free fluorescence (AID 449749); format: functional
# T1 sequence (P9WMR3 whole entry): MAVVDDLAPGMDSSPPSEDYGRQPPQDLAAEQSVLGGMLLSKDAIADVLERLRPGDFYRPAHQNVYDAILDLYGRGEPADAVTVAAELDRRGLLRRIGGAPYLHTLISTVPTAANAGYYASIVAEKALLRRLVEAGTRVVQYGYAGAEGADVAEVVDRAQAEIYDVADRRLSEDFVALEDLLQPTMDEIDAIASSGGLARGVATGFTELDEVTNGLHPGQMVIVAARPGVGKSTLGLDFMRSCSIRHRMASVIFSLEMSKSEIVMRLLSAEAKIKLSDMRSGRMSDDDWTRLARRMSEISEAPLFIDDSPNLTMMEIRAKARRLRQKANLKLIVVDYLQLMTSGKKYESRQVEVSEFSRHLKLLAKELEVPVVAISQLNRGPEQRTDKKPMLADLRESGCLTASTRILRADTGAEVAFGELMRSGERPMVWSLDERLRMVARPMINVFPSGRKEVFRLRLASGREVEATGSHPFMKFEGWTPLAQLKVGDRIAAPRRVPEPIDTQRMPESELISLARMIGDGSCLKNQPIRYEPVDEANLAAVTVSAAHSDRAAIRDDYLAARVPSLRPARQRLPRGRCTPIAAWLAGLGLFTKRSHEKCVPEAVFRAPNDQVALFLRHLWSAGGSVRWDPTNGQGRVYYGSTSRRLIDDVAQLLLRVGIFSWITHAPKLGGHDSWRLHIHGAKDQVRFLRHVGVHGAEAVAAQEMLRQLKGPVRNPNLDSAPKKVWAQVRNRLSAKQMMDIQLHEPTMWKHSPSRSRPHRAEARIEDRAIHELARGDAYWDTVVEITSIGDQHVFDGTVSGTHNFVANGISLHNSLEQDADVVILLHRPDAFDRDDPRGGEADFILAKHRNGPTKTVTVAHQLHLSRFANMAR
# [2] = target: T2, Sentrin-specific protease 8 (Homo sapiens, UniProt Q96LD8); format: functional
# T2 sequence (Q96LD8 whole entry): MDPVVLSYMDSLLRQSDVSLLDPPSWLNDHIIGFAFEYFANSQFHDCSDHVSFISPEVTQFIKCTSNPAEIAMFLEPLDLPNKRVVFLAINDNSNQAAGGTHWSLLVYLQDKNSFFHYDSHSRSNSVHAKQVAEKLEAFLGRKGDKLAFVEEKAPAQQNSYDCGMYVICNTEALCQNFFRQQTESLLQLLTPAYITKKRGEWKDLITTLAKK
# [3] = target: T2, Sentrin-specific protease 8; format: functional; remark: listed apart in the source
# [4] = target: T3, Protein RecA (Mycobacterium tuberculosis, UniProt P9WHJ3); assay: Fluorescence Cell-Free Homogeneous Dose Retest to Identify Inhibitors of RecA-Intein Splicing Activity. [Related pubchem assays (depositor defined):AID2097, AID2223, AID489010, AID492950]; format: functional
# T3 sequence (P9WHJ3 whole entry): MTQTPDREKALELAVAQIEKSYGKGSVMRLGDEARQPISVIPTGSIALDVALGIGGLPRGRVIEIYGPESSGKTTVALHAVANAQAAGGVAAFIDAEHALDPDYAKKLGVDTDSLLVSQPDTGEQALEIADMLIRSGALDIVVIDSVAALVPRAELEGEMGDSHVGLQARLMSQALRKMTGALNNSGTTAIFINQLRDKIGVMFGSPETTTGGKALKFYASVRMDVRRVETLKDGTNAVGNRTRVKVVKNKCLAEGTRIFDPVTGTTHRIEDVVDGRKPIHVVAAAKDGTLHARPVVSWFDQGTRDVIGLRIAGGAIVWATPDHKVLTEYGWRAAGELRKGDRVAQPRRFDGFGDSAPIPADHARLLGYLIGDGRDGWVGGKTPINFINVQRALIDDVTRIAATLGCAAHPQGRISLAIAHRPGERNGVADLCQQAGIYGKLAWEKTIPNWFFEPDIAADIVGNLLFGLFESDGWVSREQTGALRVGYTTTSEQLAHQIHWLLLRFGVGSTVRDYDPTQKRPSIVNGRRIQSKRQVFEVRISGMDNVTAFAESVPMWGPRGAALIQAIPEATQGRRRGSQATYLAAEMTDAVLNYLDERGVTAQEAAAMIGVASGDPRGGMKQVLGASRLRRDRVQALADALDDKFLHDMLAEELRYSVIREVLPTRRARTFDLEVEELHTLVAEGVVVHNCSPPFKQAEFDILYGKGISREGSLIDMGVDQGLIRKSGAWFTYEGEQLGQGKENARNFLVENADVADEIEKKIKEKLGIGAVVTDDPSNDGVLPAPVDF
# [5] = target: Sentrin-specific protease 1 (Homo sapiens, UniProt Q9P0U3); assay: Dose response confirmation of small molecule inhibitors of the catalytic domain of the SUMO protease, SENP1 in a FRET assay.; format: functional; settings: read-out: IC50_Mean
# [6] = cells; format: functional, cell-based
# [7] = cells; format: functional, cell-based; remark: listed apart in the source
# [8] = target: Nonstructural protein 1 (Influenza A virus, UniProt Q194T2); format: functional, Influenza A virus (A/California/07/2009(H1N1))
# [9] = microbe, parasite or virus in culture; format: functional; settings: Mycobacterium tuberculosis
# [10] = Luminescent dose response cell-based high throughput screening assay for inhibitors of the Janus kinase 2 mutant JAK2V617F. [Related pubchem assays: 1446 (Primary screen.), 1521 (Confirmation assay.), 1486 (Counter screen.)]; format: functional
# [11] = viability of PTEN-deleted HCT116 cells – cell-based, HCT116 PTEN knockout, dose response (AID 1047); format: functional;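 note: HCT116 colon tumor cells with PTEN knocked out; cells exposed to compound for 60 hours before readout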
# [12] = general mammalian cell viability loss – activator set, cherry-pick, cytotoxicity control for miR-122 modulator project, dose response (AID 720690); format: functional, cell-based;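 note: HEK293T human cells scored for general mammalian cytotoxicity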
# [13] = general mammalian cell viability loss – inhibitor set, cherry-pick, set 2, cytotoxicity control for miR-122 modulator project, dose response (AID 720697); format: functional, cell-based
# [14] = target: T4, Cytochrome P450 1A2 (Homo sapiens, UniProt P05177);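 note: PubChem cytochrome P450 panel assay, CYP1A2 panel member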
# T4 sequence (P05177 whole entry): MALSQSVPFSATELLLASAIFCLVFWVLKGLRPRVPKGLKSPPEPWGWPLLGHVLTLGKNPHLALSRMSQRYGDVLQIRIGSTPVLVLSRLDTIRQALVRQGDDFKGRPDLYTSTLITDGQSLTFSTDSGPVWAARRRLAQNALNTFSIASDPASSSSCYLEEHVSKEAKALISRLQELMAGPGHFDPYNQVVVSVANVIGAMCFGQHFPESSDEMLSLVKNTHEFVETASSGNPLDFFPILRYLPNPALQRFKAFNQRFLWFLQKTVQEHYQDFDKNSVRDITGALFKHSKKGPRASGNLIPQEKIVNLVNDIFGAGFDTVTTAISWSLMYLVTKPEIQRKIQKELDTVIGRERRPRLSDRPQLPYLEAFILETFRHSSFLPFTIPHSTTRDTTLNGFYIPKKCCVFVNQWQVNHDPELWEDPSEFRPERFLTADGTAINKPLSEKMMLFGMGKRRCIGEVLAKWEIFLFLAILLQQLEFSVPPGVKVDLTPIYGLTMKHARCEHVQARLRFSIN
# [15] = target: Cytochrome P450 3A4 (Homo sapiens, UniProt P08684);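 note: CYP3A4 tested as one member of a cytochrome P450 panel screen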
# [16] = viability of HCT116 lacking mutant beta-catenin – cell-based, human colon tumor, dose response (AID 1045); format: functional;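 note: HCT116 colon tumor cells with beta catenin knocked out; cells exposed to compound for 60 hours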
# [17] = activation of miR-122 Renilla sensor silencing – cell-based, Huh7 psiCHECK-miR122, Renilla luciferase, cherry-picked, dose response (AID 651956); format: functional;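 note: huh7 hepatoma cells stably carrying a psiCHECK-2 miR-122 sensor plasmid; renilla luciferase signal reporting endogenous miR-122 activity after 48 h compound exposure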
# [18] = target: T5, Beta-galactosidase (Escherichia coli, UniProt Q8VNN2); format: functional
# [19] = target: T6, Beta Lactamase (Pseudomonas aeruginosa, UniProt Q932Y6); assay: BLA reporter interference, concentration series – BLA reporter cells, FRET fluorescence, artefact control for NOD2-RIPK2 interaction inhibitor project, dose response (AID 651552); format: functional, cell-based
# [20] = target: Mu-type opioid receptor (Homo sapiens, UniProt P35372); assay: HTS Image-Based Screen for Agonists of the MOR Receptor. [Related pubchem assays (depositor defined):AID1777, AID1785, AID1786, AID2133]; format: functional;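 note: imaging of beta-arrestin GFP recruitment into spots after receptor activation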
# [21] = target: T7, Delta-type opioid receptor (Homo sapiens, UniProt P41143); assay: HTS Image-Based Screen for Agonists of the DOR Receptor. [Related pubchem assays (depositor defined):AID1777, AID1786, AID2133]; format: functional
# [22] = target: T7, Delta-type opioid receptor; assay: HTS Image-Based Screen for Antagonists of the DOR Receptor. [Related pubchem assays (depositor defined):AID1777, AID1785, AID1786, AID2133]; format: functional
# [23] = target: T6, Beta Lactamase; assay: BLA reporter interference, concentration series – BLA reporter cells, FRET fluorescence, artefact control for TLR9-MyD88 binding inhibitor project, dose response (AID 588341); format: cell-based;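 note: cell based assay in CHO-K1 cells stably expressing beta-lactamase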
# [24] = target: T8, Type-1 angiotensin II receptor (Homo sapiens, UniProt P30556); assay: antagonism of angiotensin II type 1 receptor – cell-based, uHTS hits, selectivity assay for APJ receptor antagonist project, dose response (AID 463214); format: functional;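 note: antagonist potency against angiotensin II stimulated AT1 response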
# T8 sequence (P30556 whole entry): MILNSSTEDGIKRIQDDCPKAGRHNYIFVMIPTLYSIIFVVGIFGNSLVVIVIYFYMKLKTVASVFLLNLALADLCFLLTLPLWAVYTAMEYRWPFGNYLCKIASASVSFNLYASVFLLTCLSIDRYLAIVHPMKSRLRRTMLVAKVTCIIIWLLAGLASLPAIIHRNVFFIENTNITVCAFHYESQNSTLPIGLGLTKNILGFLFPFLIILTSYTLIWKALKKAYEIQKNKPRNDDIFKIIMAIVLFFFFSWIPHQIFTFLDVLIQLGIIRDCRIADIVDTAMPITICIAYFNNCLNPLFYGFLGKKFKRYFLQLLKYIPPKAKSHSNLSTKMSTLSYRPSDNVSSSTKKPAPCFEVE
# [25] = target: Glucose-6-phosphate 1-dehydrogenase (Homo sapiens, UniProt P11413); assay: inhibition of Homo sapiens G6PD, dose series – biochemical, fluorescence, selectivity assay for P. falciparum G6PD inhibitor project, dose response (AID 504792); format: functional
# [26] = system: CHO; assay: CHO cell viability loss, potency – luminescence, cytotoxicity control for TLR9-MyD88 binding inhibitor project, dose response (AID 588339); format: functional, cell-based, hamster; settings: Cricetulus griseus;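 note: CHO cells stably coexpressing TLR9 and MyD88 fusions from primary screen; compound exposure lasted 48 hours before viability readout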
# [27] = target: T9, Kappa-type opioid receptor (Homo sapiens, UniProt P41145); format: functional
# [28] = target: T9, Kappa-type opioid receptor; format: functional; remark: listed apart in the source
# [29] = target: Genome polyprotein (dengue virus type 2, UniProt P29990); assay: flavivirus cap methylation enzyme inhibition – biochemical, confirmation dose response, primary screen (AID 588689); format: functional
# [30] = system: Vero; assay: viability of Vero cells under compound – cytotoxicity control for flavivirus capping enzyme inhibitors (AID 588742); format: functional; settings: Chlorocebus sabaeus
# [31] = Fluorescence-based cell-based high throughput dose response assay for inhibitors of the interaction of nucleotide-binding oligomerization domain containing 2 (NOD2) and the receptor-interacting serine-threonine kinase 2 (RIPK2).; format: functional; settings: Homo sapiens
# [32] = target: T5, Beta-galactosidase; assay: PubChem AID 485352; format: functional
# [33] = mouse fibroblast viability loss – cell-based, cherry-pick samples, set 2, cytotoxicity control for T. cruzi growth inhibitor project, dose response (AID 651817); format: functional; settings: NIH3T3
# [34] = target: T10, Probable nicotinate-nucleotide adenylyltransferase (Staphylococcus aureus (strain N315), UniProt P65502); format: functional, Staphylococcus aureus subsp. aureus N315;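 for IC50 Mean: confirmatory dose-response retesting of NadD inhibitor hits first found in an ultra-high-throughput screen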
# [35] = inhibition of ARNT PAS-B/TACC3 complex formation – biochemical, AlphaScreen, cherry-picked samples, confirmation (AID 651703); format: functional, Homo sapiens;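 note: His-tagged ARNT PAS-B domain paired with GST-TACC3 E629A dimer coactivator fragment; potency of inhibitors that break up the complex and lower AlphaScreen signal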
# [36] = target: T10, Probable nicotinate-nucleotide adenylyltransferase; format: functional, Staphylococcus aureus subsp. aureus N315; settings: read-out: IC50_Mean
# Sequence of Genome polyprotein (P29990 2492-3391 limits assumed): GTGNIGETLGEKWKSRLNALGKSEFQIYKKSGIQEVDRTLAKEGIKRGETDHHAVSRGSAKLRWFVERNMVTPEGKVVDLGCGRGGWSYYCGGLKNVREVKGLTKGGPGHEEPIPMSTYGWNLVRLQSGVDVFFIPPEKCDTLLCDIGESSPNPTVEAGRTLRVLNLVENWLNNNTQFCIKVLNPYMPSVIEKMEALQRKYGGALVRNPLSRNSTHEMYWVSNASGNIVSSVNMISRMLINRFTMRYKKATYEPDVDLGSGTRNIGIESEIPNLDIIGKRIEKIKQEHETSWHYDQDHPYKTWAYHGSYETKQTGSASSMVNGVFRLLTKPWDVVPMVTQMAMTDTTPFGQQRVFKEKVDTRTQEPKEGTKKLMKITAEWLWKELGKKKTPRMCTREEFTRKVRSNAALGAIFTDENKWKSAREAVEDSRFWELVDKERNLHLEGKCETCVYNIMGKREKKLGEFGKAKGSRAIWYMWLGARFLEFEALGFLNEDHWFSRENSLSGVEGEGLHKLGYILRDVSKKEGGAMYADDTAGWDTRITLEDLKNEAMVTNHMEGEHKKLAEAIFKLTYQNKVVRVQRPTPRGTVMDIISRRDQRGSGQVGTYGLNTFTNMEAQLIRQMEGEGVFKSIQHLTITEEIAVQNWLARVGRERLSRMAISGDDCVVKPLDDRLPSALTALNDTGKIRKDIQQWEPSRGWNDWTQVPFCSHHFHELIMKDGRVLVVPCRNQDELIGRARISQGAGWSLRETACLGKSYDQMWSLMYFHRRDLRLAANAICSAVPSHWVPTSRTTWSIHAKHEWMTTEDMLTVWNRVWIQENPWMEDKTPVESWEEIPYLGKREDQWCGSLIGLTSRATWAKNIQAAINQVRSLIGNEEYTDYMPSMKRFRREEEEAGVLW
# T9 sequence (P41145 whole entry): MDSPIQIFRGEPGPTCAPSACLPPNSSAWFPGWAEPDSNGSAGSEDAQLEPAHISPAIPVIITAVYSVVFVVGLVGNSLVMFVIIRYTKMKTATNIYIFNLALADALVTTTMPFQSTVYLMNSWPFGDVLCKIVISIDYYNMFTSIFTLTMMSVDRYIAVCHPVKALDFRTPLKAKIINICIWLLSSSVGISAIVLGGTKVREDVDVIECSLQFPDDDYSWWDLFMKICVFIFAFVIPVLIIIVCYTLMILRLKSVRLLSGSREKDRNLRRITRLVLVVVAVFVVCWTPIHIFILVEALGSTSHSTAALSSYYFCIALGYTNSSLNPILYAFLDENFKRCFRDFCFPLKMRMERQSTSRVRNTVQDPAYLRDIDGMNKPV
# T7 sequence (P41143 whole entry): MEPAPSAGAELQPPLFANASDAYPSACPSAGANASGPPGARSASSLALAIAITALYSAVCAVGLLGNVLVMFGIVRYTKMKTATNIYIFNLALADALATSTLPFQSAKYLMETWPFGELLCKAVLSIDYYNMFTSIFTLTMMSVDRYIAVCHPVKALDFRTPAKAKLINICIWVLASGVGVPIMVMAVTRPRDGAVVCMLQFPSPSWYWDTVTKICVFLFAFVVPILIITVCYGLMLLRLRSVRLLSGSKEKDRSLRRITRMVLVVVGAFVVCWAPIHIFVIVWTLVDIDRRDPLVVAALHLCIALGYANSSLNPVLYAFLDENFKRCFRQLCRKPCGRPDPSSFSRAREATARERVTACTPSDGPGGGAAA
# T10 sequence (P65502 whole entry, the tested form may be a part): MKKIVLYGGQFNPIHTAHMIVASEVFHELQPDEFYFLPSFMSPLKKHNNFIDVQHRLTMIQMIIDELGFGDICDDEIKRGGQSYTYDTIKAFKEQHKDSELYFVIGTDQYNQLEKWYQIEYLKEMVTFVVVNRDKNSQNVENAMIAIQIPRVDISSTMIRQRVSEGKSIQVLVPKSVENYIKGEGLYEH
# T6 sequence (Q932Y6 whole entry): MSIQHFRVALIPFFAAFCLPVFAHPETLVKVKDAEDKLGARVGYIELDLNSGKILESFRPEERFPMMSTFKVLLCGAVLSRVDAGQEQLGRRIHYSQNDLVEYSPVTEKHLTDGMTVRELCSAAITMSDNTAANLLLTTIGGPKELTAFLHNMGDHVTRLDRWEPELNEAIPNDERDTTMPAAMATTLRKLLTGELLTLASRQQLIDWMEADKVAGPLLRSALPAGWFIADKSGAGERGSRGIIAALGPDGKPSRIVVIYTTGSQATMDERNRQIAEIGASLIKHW
# T5 sequence (Q8VNN2 whole entry): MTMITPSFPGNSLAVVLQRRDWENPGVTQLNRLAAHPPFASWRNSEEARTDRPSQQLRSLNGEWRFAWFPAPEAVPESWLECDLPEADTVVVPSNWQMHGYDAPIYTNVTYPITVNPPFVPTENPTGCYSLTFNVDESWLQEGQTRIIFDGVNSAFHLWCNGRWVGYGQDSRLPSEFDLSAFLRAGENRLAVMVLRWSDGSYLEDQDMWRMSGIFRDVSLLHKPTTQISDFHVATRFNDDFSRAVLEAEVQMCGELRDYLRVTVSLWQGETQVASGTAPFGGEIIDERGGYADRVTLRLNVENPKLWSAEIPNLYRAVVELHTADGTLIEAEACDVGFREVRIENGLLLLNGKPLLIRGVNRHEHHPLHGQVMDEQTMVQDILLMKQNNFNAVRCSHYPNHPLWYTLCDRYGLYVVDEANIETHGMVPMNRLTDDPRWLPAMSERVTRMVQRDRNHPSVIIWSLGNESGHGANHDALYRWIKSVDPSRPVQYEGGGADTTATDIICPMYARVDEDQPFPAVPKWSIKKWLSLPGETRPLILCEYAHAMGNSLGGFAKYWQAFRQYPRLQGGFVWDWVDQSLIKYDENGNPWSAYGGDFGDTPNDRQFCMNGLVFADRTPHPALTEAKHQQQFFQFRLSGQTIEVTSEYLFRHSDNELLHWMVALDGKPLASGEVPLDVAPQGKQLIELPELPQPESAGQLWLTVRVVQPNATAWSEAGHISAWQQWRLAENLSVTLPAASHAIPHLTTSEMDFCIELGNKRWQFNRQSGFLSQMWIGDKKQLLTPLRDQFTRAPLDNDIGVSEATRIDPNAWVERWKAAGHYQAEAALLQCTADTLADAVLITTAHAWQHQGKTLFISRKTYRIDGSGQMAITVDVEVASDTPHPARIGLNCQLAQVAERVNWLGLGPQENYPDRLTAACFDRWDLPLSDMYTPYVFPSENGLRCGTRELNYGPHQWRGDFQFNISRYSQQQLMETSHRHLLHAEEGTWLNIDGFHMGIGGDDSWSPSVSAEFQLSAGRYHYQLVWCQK
# Sequence of Nonstructural protein 1 (Q194T2 whole entry): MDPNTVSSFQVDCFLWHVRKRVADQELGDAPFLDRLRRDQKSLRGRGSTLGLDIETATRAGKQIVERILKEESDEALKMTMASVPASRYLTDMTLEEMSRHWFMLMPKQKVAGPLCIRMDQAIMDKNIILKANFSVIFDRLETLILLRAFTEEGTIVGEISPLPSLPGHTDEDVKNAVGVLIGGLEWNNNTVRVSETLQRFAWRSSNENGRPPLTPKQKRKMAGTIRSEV
# Sequence of Mu-type opioid receptor (P35372 whole entry): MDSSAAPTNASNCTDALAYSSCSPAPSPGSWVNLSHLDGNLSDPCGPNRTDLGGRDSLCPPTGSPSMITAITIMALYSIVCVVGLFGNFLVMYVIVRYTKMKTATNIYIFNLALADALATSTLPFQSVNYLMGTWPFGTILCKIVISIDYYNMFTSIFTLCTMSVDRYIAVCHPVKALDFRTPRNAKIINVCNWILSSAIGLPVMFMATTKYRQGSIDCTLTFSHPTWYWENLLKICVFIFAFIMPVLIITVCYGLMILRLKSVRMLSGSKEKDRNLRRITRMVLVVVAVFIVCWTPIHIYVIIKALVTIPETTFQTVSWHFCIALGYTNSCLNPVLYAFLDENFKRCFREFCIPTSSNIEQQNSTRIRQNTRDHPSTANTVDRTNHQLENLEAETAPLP
# Sequence of Glucose-6-phosphate 1-dehydrogenase (P11413 whole entry, the tested form may be a part): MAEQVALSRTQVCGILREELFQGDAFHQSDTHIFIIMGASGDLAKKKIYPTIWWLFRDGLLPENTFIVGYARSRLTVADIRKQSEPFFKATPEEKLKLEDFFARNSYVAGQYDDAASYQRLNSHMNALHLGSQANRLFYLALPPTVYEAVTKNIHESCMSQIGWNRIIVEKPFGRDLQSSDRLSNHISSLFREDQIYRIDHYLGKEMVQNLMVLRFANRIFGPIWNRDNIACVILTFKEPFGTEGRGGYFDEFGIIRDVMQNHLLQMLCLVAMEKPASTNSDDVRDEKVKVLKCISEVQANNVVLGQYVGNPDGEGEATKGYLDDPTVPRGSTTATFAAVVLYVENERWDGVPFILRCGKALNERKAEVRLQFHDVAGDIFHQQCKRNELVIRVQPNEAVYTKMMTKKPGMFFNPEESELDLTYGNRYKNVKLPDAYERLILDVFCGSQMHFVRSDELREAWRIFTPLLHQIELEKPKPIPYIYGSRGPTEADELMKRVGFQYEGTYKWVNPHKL
# Sequence of Sentrin-specific protease 1 (Q9P0U3 whole entry, the tested form may be a part): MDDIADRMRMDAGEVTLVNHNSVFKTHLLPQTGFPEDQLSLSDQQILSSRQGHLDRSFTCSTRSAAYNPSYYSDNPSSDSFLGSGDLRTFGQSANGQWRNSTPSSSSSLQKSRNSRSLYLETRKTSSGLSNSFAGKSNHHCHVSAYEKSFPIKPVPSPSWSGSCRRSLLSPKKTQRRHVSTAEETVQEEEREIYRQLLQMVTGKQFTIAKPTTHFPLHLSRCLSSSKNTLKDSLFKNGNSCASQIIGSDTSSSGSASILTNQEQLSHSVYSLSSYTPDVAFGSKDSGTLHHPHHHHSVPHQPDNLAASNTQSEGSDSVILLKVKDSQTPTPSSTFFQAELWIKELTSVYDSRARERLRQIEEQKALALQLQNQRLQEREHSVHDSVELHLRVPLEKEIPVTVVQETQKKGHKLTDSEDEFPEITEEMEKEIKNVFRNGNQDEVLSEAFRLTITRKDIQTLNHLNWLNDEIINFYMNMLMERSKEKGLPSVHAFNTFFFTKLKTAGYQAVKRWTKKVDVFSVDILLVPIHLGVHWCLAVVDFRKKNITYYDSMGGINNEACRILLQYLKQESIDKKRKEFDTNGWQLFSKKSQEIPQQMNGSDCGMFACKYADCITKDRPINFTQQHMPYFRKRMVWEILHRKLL
smiles,measurement,setting,value
CC1=NN(c2ccc(C)cc2C)C(=O)C1C(c1cccc(O)c1)C1C(=O)N(c2ccc(C)cc2C)N=C1C (stereo unspecified),AC50,[1],1.09 µM (active)
same,IC50,[2],30 µM (active)
same,IC50,[3],12.6 µM (active)
same,EC50,[4],0.524 µM (active)
CCOC(=O)/C(C#N)=C/C=C1\C=Cc2ccccc2N1CC,IC50,[5],6.27 µM (active)
same,EC50,[6],> 350 µM (not active)
same,EC50,[7],> 350 µM (not active)
same,IC50,[8],> 100 µM (active)
CCCn1c(CC)nc([N+](=O)[O-])c1S(=O)(=O)c1ccccc1,AC50,[1],> 380 µM (inactive)
same,CC50,[9],13.1 µM (active)
same,IC50,[10],0.996 µM (active)
same,EC50,[11],5.85 µM (active)
same,AC50,[12],7.65 µM (active)
same,AC50,[13],4.03 µM (active)
same,AC50,[14],22.4 µM (inconclusive)
same,AC50,[15],25.1 µM (inconclusive)
same,EC50,[16],6.09 µM (active)
same,EC50,[4],> 380 µM (inactive)
same,AC50,[17],24.8 µM (active)
CCC(=O)OCCNc1cc(Sc2nc3ccccc3s2)c2nonc2c1[N+](=O)[O-],EC50,[18],> 31.5 µM (inactive)
same,IC50,[19],12.2 µM (inactive)
same,AC50,[1],2.36 µM (active)
same,EC50,[20],> 32 µM (inactive)
same,EC50,[21],< 0.5 µM (active)
same,IC50,[22],> 32 µM (inactive)
same,IC50,[23],10.5 µM (inactive)
same,IC50,[24],3.51 µM (active)
same,IC50,[25],> 80 µM (inactive)
same,IC50,[26],3.25 µM (active)
same,IC50,[27],8.16 µM (active)
same,IC50,[28],> 32 µM
same,IC50,[29],29.6 µM (active)
same,CC50,[30],18.5 µM (active)
same,EC50,[4],0.572 µM (active)
same,IC50,[31],1.53 µM (active)
same,EC50,[32],> 40 µM (inactive)
C[C@@H]1CN([C@@H](C)CO)C(=O)Cc2cc(NS(=O)(=O)c3ccc(Cl)cc3)ccc2O[C@H]1CN(C)S(=O)(=O)c1ccc(Cl)cc1,AC50,[33],19.4 µM (active)
O=C(O)COc1ccccc1/C=N/NC(=O)c1cc(-c2ccc(Cl)cc2)nc2ccccc12,IC50,[34],5.1 µM (active)
same,IC50,[29],39.5 µM (active)
same,AC50,[35],75.2 µM (active)
same,IC50,[36],34.2 µM (active)
